Patent US11851440B2, “Modulators of eukaryotic initiation factor 2B, compositions and methods” (Denali Therapeutics Inc., priority 2017, dated 2023)
Read-outs that look alike come from different tables or passages of the source.

System: ISR pathway (ATF4 translation)
Assay: ATF4 Nano Luciferase reporter integrated stress response (ISR) assay in H4 ATF4-NLuc cells
Conditions: compound 30 minutes, then 50 um sodium arsenite for 6 hours, luminescence readout
[1] = Homo sapiens, read-out: Activity (IC50), H4 ATF4-NLuc (clone 17) cells
[2] = read-out: Activity (IC50), H4 ATF4-NLuc (clone 17) cells

Structure (SMILES) | IC50 [1] [µM] | other results
O=C(COc1cccc(OC(F)(F)F)c1)NC12CC(c3nnc([C@H]4C[C@@H](OC(F)(F)F)C4)o3)(C1)C2 [Example 173] | < 1 | –
O=C(COc1ccc(C(F)(F)F)nc1)NC12CC(c3nnc([C@H]4C[C@@H](OC(F)(F)F)C4)o3)(C1)C2 [Example 174] | < 1 | –
O=C(NC12CC(c3nnc([C@H]4C[C@@H](OC(F)(F)F)C4)o3)(C1)C2)c1nc2cc(Cl)ccc2s1 [Example 175] | < 1 | –
O=C(NC12CC(c3nnc([C@H]4C[C@@H](OC(F)(F)F)C4)o3)(C1)C2)c1nc2cc(Cl)ccn2n1 [Example 176] | < 1 | –
O=C(NC12CC(c3nnc([C@H]4C[C@@H](OC(F)(F)F)C4)o3)(C1)C2)c1cn2ncc(Cl)cc2n1 [Example 177] | < 1 | –
O=C(NC12CC(c3nnc([C@H]4C[C@@H](OC(F)(F)F)C4)o3)(C1)C2)c1cn2cc(F)ccc2n1 [Example 180] | 1 to 10 | –
O=C(NC12CC(c3nnc([C@H]4C[C@@H](OC(F)(F)F)C4)o3)(C1)C2)c1cc2ccc(Cl)n2cn1 [Example 181] | < 1 | –
O=C(NC12CC(c3nnc([C@H]4C[C@@H](OC(F)(F)F)C4)o3)(C1)C2)c1cc2ccc(Cl)cc2nn1 [Example 183] | < 1 | –
O=C(NC12CC(c3nnc([C@H]4C[C@@H](OC(F)(F)F)C4)o3)(C1)C2)c1cc2ccc(Br)cc2cn1 [Example 184] | < 1 | –
O=C(NC12CC(c3nnc([C@H]4C[C@@H](OC(F)(F)F)C4)o3)(C1)C2)c1cn2ccc(C(F)(F)F)cc2n1 [Example 185] | < 1 | –
O=C(NC12CC(c3nnc([C@H]4C[C@@H](OC(F)(F)F)C4)o3)(C1)C2)c1cn2cc(C(F)(F)F)ccc2n1 [Example 186] | < 1 | –
O=C(NC12CC(c3nnc([C@H]4C[C@@H](OC(F)(F)F)C4)o3)(C1)C2)c1ccc2ccccc2n1 [Example 187] | < 1 | –
O=C(NC12CC(c3nnc([C@H]4C[C@@H](OC(F)(F)F)C4)o3)(C1)C2)c1cnc2ccccc2n1 [Example 188] | < 1 | –
O=C(NC12CC(c3nnc([C@H]4C[C@@H](OC(F)(F)F)C4)o3)(C1)C2)c1ccc2cc(F)ccc2n1 [Example 189, 6-fluoro-N-[1-[5-[3-cis-(trifluoromethoxy)cyclobutyl]-1,3,4-oxadiazol-2-yl]-3-bicyclo[1.1.1]pentanyl]quinoline-2-carboxamide] | – | IC50 (H4 ATF4-NLuc (clone 17) cells): 0.0285 µM; IC50 [2]: < 1 µM
O=C(NC12CC(c3nnc([C@H]4C[C@@H](OC(F)(F)F)C4)o3)(C1)C2)c1ncc2ccccc2n1 [Example 191] | < 1 | –
O=C(NC12CC(c3nnc([C@H]4C[C@@H](OC(F)(F)F)C4)o3)(C1)C2)c1nc2ccc(Cl)cc2s1 [Example 192] | < 1 | –
O=C(NC12CC(c3nnc([C@H]4C[C@@H](OC(F)(F)F)C4)o3)(C1)C2)c1nc2cc(Br)ccc2o1 [Example 193] | < 1 | –
O=C(NC12CC(c3nnc([C@H]4C[C@@H](OC(F)(F)F)C4)o3)(C1)C2)c1cn2cc(F)c(Cl)cc2n1 [Example 194] | < 1 | –
O=C(NC12CC(c3nnc([C@H]4C[C@@H](OC(F)(F)F)C4)o3)(C1)C2)c1ncc2cc(Cl)ccc2n1 [Example 195] | < 1 | –
O=C(NC12CC(c3nnc([C@H]4C[C@@H](OC(F)(F)F)C4)o3)(C1)C2)c1ccc2cc(Cl)c(F)cc2n1 [Example 196] | < 1 | –
O=C(COc1ccc(Cl)c(F)c1)NC12CC(NCCO[C@H]3C[C@@H](n4nccn4)C3)(C1)C2 [Example 197] | < 1 | –
O=C(CO[C@H]1C[C@@H](OC(F)(F)F)C1)NC12CC(n3cc(-c4ccc(Cl)cc4)oc3=O)(C1)C2 [Example 198] | < 1 | –
O=C(CO[C@H]1C[C@@H](OC(F)(F)F)C1)NC12CC(c3nnc(-c4ccc(C(F)(F)F)cn4)o3)(C1)C2 [Example 199] | < 1 | –
O=C(COc1ccc(Cl)c(F)c1)NC12CC(n3cnnn3)(C1)C2 [Example 200] | < 1 | –
O=C(CO[C@H]1C[C@@H](OC(F)(F)F)C1)NC12CC(c3nc(-c4ccc(Cl)c(F)c4)no3)(C1)C2 [Example 201] | < 1 | –

Structure (SMILES) | IC50 [1] [µM] | other results
O=C(CO[C@H]1C[C@@H](OC(F)(F)F)C1)NC12CC(c3noc(-c4ccc(Cl)cc4)n3)(C1)C2 [Example 203] | < 1 | –
O=C(CO[C@H]1C[C@@H](OC(F)(F)F)C1)NC12CC(c3nnc(-c4ccc(C(F)(F)F)nc4)o3)(C1)C2 [Example 204] | < 1 | –
O=C(CO[C@H]1C[C@@H](OC(F)(F)F)C1)NC12CC(c3nc(-c4ccc(Cl)cc4)no3)(C1)C2 [Example 205] | < 1 | –
O=C(COc1ccc(Cl)cc1)NC12CC(N3CC(CC(F)(F)F)CC3=O)(C1)C2 (centres unmarked) [Example 210] | < 1 | –
CN1C(=O)N(C23CC(NC(=O)COc4ccc(Cl)cc4)(C2)C3)CC1c1ccc(Cl)cc1 (centres unmarked) [Example 212] | < 1 | –
O=C(COc1ccc(Cl)cc1)NC12CC(N3CC(C4CCC4)CC3=O)(C1)C2 (centres unmarked) [Example 213] | 1 to 10 | –
O=C(COc1ccc(Cl)cc1)NC12CC(N3CC(C4CCC4)=CC3=O)(C1)C2 [Example 214] | < 1 | –
O=C(COc1ccc(Cl)c(F)c1)NC12CC(N3CCN(CC4CCC4)C3=O)(C1)C2 [Example 215] | 1 to 10 | –
O=C(COc1ccc(Cl)c(F)c1)NC12CC(N3CC(C4CCC4)OC3=O)(C1)C2 (centres unmarked) [Example 216] | < 1 | –
O=C(COc1ccc(Cl)c(F)c1)NC12CC(C3CN(C4CCC4)C(=O)O3)(C1)C2 (centres unmarked) [Example 219] | – | IC50 [2]: > 10 µM
O=C(COc1ccc(Cl)c(F)c1)NC12CC(C3CN(CC4CCC4)C(=O)O3)(C1)C2 (centres unmarked) [Example 220] | < 1 | –
O=C(COc1ccc(Cl)c(F)c1)NC12CC(N3CC(COC(F)(F)F)CC3=O)(C1)C2 (centres unmarked) [Example 221] | < 1 | –
O=C(COc1ccc(Cl)c(F)c1)NC12CC(N3CCC(COC(F)(F)F)C3=O)(C1)C2 (centres unmarked) [Example 222] | < 1 | –
O=C(COc1ccc(Cl)c(F)c1)NC12CC(N3CC(COC(F)(F)F)OC3=O)(C1)C2 (centres unmarked) [Example 223] | 1 to 10 | –
O=C(COc1ccc(Cl)c(F)c1)NC12CC(N3CC(C4CN(CC(F)(F)F)C4)OC3=O)(C1)C2 (centres unmarked) [Example 224] | < 1 | –
O=C(NC12CC(c3nnc([C@H]4C[C@@H](OC(F)(F)F)C4)o3)(C1)C2)c1ccn(CCOC(F)(F)F)n1 [Example 225] | < 1 | –
O=C(COC[C@H]1C[C@@H](OC(F)(F)F)C1)NC12CC(c3nnc([C@H]4C[C@@H](OC(F)(F)F)C4)o3)(C1)C2 [Example 226] | – | IC50 [2]: < 1 µM
O=C(CO[C@H]1C[C@@H](OC(F)(F)F)C1)NC12CC(c3ncc(-c4ccc(Cl)c(F)c4)o3)(C1)C2 [Example 227] | < 1 | –
O=C(CO[C@H]1C[C@@H](OC(F)(F)F)C1)NC12CC(c3cn(-c4ccc(Cl)c(F)c4)cn3)(C1)C2 [Example 228] | < 1 | –
O=C(NC12CC(n3cnc(-c4ccc(F)c(F)c4)c3)(C1)C2)[C@H]1C[C@@H](OCCOC(F)(F)F)C1 [Example 229] | < 1 | –
O=C(CO[C@H]1C[C@@H](n2nccn2)C1)NC12CC(n3cnc(-c4ccc(Cl)c(F)c4)c3)(C1)C2 [Example 230] | < 1 | –
O=C(CO[C@H]1C[C@@H](OC(F)(F)F)C1)NC12CC(n3cnc(-c4cnc(C(F)(F)F)nc4)c3)(C1)C2 [Example 231] | < 1 | –
O=C(NC12CC(c3nnc(C4CC(OC(F)(F)F)C4)o3)(C1)C2)C(CO)Oc1ccc(Cl)cc1 (centres unmarked) [Example 232] | < 1 | –
O=C(CO[C@H]1C[C@@H](OC(F)(F)F)C1)NC12CC(c3nc4ccc(Cl)cc4o3)(C1)C2 [Example 233] | < 1 | –
